# Reference: ChEMBL document CHEMBL4043221, “Natural neuro-inflammatory inhibitors from Caragana turfanensis” (Bioorg Med Chem Lett, 2017)
# What was measured:
# [1] = tested on: BV-2; test: Antineuroinflammatory activity in mouse BV2 cells assessed as inhibition of LPS-induced NO production after 24 hrs in presence of LPS by Griess reaction based assay; assay type: functional, cell-based; conditions: BV-2, 24 h
# [2] = tested on: BV-2; test: Cytotoxicity against mouse BV2 cells assessed as reduction in cell viability at 1 to 100 uM after 24 hrs in presence of LPS by MTT assay; assay type: cell-based; conditions: bv-2, 24 h
IC50 [1] [µM],SMILES,Activity [2]
> 100,O=c1c(-c2ccc(O)c(O)c2)coc2cc(O)ccc12,–
> 100,COc1cc([C@H]2OC[C@@H]3[C@H]2CO[C@@H]3c2cc(OC)c(O)c(OC)c2)ccc1O,–
> 100,Oc1cc(O)c2c(c1)C1C(c3cc(O)cc(O)c3[C@H]1c1ccc(O)c(O)c1)[C@@H]2c1ccc(O)c(O)c1 (some centres undefined),–
> 100,COc1ccc(-c2coc3cc(O)cc(O)c3c2=O)cc1O [PRATENSEIN],–
> 100,COc1cc([C@@H]2OC[C@@H]3[C@H]2CO[C@H]3c2cc(OC)c(O)c(OC)c2)cc(OC)c1O,–
18.5,COc1ccc(-c2coc3cc(O)c(OC)cc3c2=O)cc1O [ODORATIN],Non-Toxic
> 100,O=C1c2ccc(O)cc2O[C@@H](c2ccc(O)c(O)c2)[C@@H]1O,–
> 100,O=C1CC(c2cc(O)cc(O)c2)Oc2cc(O[C@@H]3O[C@H](CO)[C@@H](O)[C@H](O)[C@H]3O)cc(O)c21 (some centres undefined),–
39.6,COc1ccc(-c2coc3cc(O)ccc3c2=O)cc1O [CALYCOSIN],Non-Toxic
6.87,COc1ccc(-c2coc3c(O)c(O)ccc3c2=O)cc1O,Non-Toxic
1.01,COc1cc(O)c(-c2cc3ccc(O)cc3oc2=O)cc1OC,Non-Toxic
76.2,COc1cc([C@H]2OC[C@H]3[C@@H]2CO[C@@H]3c2ccc(O)c(OC)c2)ccc1O,Non-Toxic
73,O=c1c(O)c(-c2ccc(O)c(O)c2)oc2cc(O)ccc12 [FISETIN],Non-Toxic
72.6,O=C(C[C@@H](O)c1ccc(O)c(O)c1)c1ccc(O)cc1O,Non-Toxic
18.7,Oc1ccc(/C=C/c2cc(O)cc(O)c2)cc1 [RESVERATROL],Non-Toxic
> 100,COc1ccc2c(c1)O[C@H](c1ccc(O)c(O)c1)CC2=O,–
80.5,Oc1cc(O)cc(/C=C/c2ccc(O)c(O)c2)c1 [PICEATANNOL],Non-Toxic
> 100,COc1cc([C@H]2OC[C@H]3[C@@H]2CO[C@H]3c2cc(OC)c(O)c(OC)c2)cc(OC)c1O,–

# Further lines, the compound ahead of its results:
SMILES,IC50 [1] [µM],Activity [2]
O=C(O)/C=C/c1ccc(O)cc1 [COUMARIC ACID],> 100,–
COc1ccc(-c2coc3cc(O)ccc3c2=O)cc1 [FORMONONETIN],13.2,Non-Toxic
O=Cc1ccc(O)c(O)c1 [PROTOCATECHUALDEHYDE],> 100,–
CCCCCCCCCCCCCCCCCCOC(=O)/C=C/c1ccc(O)c(O)c1,> 100,–
C[N+](C)(C)C(Cc1c[nH]c2ccccc12)C(=O)[O-] (centres undefined),> 100,–
O=C(O)c1ccc(O)cc1 [PARABEN],> 100,–
O=C(O)/C=C/c1ccccc1O [O-COUMARIC ACID],> 100,–
O=C(O)c1ccc(O)c(O)c1 [PROTOCATECHUIC ACID],> 100,–
CCCCCCCCCCCCCCCCCCCCCCCCOC(=O)/C=C/c1ccc(O)c(OC)c1,> 100,–
O=C(O)/C=C/c1ccccc1 [CINNAMIC ACID],> 100,–
O=C(/C=C/c1ccc(O)cc1)c1ccc(O)cc1O [ISOLIQUIRITIGENIN],> 100,–
COc1cc([C@H]2OC[C@H]3[C@@H]2CO[C@@H]3c2cc(OC)c(O[C@@H]3O[C@H](CO)[C@@H](O)[C@H](O)[C@H]3O)c(OC)c2)cc(OC)c1O[C@@H]1O[C@H](CO)[C@@H](O)[C@H](O)[C@H]1O [LIRIODENDRIN],> 100,–
CC[C@H](CC[C@@H](C)[C@H]1CC[C@H]2[C@@H]3C(=O)C=C4C[C@@H](O)CC[C@]4(C)[C@H]3CC[C@]12C)C(C)C,> 100,–
CN(C)c1ccc(O)c2c1C[C@H]1C[C@H]3[C@H](N(C)C)C(O)=C(C(N)=O)C(=O)[C@@]3(O)C(O)=C1C2=O [MINOCYCLINE],9.07,–
C=C(C)[C@@H]1CC[C@]2(C)CC[C@]3(C)[C@H](CC[C@@H]4[C@@]5(C)CC[C@H](O)C(C)(C)[C@@H]5CC[C@]43C)[C@@H]12 [LUPEOL],> 100,–
CCCCCCCCCCCCCCCCCCCCCCCCCC(=O)O [HEXACOSANOIC ACID],> 100,–
